The text below walks through data of patent US12351580B2, “NLRP3 modulators” (Innate Tumor Immunity, Inc., priority 2017, dated 2025).

The assay concerns the target T1, TLR7 (Homo sapiens, UniProt Q9NYK1).
T1 construct: host or cells: HEK-Blue cells (human HEK) co-expressing TLR7 and an NF-kB/AP1-inducible SEAP reporter
T1 sequence (Q9NYK1 27-1049): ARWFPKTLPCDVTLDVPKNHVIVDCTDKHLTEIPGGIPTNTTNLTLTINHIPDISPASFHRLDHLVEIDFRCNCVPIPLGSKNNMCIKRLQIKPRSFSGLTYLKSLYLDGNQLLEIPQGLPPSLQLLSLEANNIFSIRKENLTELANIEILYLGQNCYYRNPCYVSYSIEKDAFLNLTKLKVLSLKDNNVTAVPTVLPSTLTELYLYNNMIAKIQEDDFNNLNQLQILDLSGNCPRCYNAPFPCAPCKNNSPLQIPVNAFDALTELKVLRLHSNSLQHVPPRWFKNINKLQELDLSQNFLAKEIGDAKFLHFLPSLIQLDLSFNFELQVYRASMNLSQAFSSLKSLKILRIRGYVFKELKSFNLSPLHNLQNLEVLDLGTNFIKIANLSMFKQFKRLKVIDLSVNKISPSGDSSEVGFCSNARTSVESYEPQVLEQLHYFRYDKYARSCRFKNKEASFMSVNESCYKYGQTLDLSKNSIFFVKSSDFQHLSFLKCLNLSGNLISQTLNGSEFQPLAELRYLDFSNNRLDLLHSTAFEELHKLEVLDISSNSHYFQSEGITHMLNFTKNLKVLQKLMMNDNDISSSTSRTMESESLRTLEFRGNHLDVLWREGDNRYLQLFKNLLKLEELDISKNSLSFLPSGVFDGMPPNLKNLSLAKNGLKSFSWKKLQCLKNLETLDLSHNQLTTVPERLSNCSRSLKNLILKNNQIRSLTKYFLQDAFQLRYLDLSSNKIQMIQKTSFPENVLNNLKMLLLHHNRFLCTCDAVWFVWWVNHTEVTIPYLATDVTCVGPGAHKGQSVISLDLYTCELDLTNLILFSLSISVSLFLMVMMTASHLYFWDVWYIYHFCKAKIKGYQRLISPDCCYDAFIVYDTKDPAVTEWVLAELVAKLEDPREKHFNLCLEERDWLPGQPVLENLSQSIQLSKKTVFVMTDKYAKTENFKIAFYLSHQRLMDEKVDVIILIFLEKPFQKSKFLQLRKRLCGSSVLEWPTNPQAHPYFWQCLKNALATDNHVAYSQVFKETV
Nature of the assay: In vitro human TLR7 binding reporter assay (HEK-Blue, NF-kB/AP1-inducible SEAP). In kind it is cell-based. As to conditions: activity range symbols. As for the experimental part: In Vitro Human TLR7 and TLR8 Binding Reporter Assays
Logarithmically-growing human HEK-Blue cells co-expressing a TLR7 or TLR8 gene and a NF-kB/AP1-inducible SEAP (secreted embryonic alkaline phosphatase; Invivogen, San Diego, CA) reporter gene are added to individual wells of a 384-well plate (15,000 cells per 20 μL per well) and maintained for 24 h at 37° C., 5% CO2. Test compounds or DMSO are distributed to separate wells the next day using acoustic liquid handling technology (100 nL per well) and cells are subsequently incubated for 18 h at 37° C., 5% CO2. Cellular SEAP production is measured using an Envision plate reader instrument thirty minutes after adding freshly-made Quanti-Blue reagent (prepared by following manufacturer instructions; Invivogen, San Diego, CA) to the HEK-Blue TLR Nf-kB-SEAP cell reactions. All EC50 values (half-maximal effective concentration) are determined using proprietary data analysis software.
Take `Nc1nc2cc(-n3cccn3)ccc2c2[nH]c(CN3CC(c4ccccc4)CC3=O)nc12` (centres unmarked) [Compound 103]: the EC50 was more than 100 µM. The result for `CCN(Cc1nc2c(N)nc3cc(C)ccc3c2[nH]1)C(C)=O` [Compound 104] reads more than 100 µM; that for `CCNCc1nc2c(N)nc3cc(-c4cc[nH]n4)ccc3c2n1C` [Compound 106, 2-((Ethylamino)methyl)-1-methyl-7-(1H-pyrazol-3-yl)-1H-imidazo[4,5-c]quinolin-4-amine], more than 100 µM. As for `CCN(Cc1nc2c(N)nc3cc(-n4cccn4)ccc3c2[nH]1)S(C)(=O)=O` [Compound 108, N-((4-Amino-7-(1H-pyrazol-1-yl)-1H-imidazo[4,5-c]quinolin-2-yl)methyl)-N-ethylmethanesulfonamide], the figure is more than 100 µM. The result for `CCN(Cc1nc2c(N)nc3cc(-c4cc[nH]n4)ccc3c2[nH]1)C(=O)OC(C)(C)C` [Compound 109, tert-Butyl ((4-amino-7-(1H-pyrazol-3-yl)-1H-imidazo[4,5-c]quinolin-2-yl)methyl)(ethyl)carbamate] reads more than 100 µM; that for `CCN(Cc1nc2c(N)nc3cc(-c4cc[nH]n4)ccc3c2[nH]1)C(=O)N(C)C` [Compound 110, 1-((4-Amino-7-(1H-pyrazol-3-yl)-1H-imidazo[4,5-c]quinolin-2-yl)methyl)-1-ethyl-3,3-dimethylurea], more than 100 µM; that for `Nc1nc2cc(C(F)(F)F)ccc2c2[nH]c(CN3CCCC3=O)nc12` [Compound 163], 20 to 100 µM. The compound `CCN(Cc1nc2c(N)nc3ccccc3c2n1CCCC(=O)OC)C(C)=O` [Compound 164] returned an EC50 of more than 100 µM. The result for `CCN(Cc1nc2c(N)nc3cc(-c4ccccc4)ccc3c2[nH]1)C(C)=O` [Compound 165, N-[(4-amino-7-phenyl-1H-imidazo[4,5-c]quinolin-2-yl)methyl]-N-ethylacetamide] reads more than 100 µM; that for `CCN(Cc1nc2c(N)nc3cc(-c4cccnc4)ccc3c2[nH]1)C(C)=O` [Compound 166, N-[(4-amino-7-pyridin-3-yl-1H-imidazo[4,5-c]quinolin-2-yl)methyl]-N-ethylacetamide], more than 100 µM; that for `CCN(Cc1nc2c(N)nc3cc(-c4ccncc4)ccc3c2[nH]1)C(C)=O` [Compound 167, N-[(4-amino-7-pyridin-4-yl-1H-imidazo[4,5-c]quinolin-2-yl)methyl]-N-ethylacetamide], more than 100 µM.

`CCN(Cc1nc2c(N)nc3cc(-c4cc(C)nn4C)ccc3c2[nH]1)C(C)=O` [Compound 168, N-[[4-amino-7-(2,5-dimethylpyrazol-3-yl)-1H-imidazo[4,5-c]quinolin-2-yl]methyl]-N-ethylacetamide] yielded an EC50 of more than 100 µM. As for `CCCn1cc(-c2ccc3c(c2)nc(N)c2nc(CN(CC)C(C)=O)[nH]c23)cn1` [Compound 169, N-[[4-amino-7-(1-propylpyrazol-4-yl)-1H-imidazo[4,5-c]quinolin-2-yl]methyl]-N-ethylacetamide], the figure is more than 100 µM; as for `CCN(Cc1nc2c(N)nc3cc(C(C)C)ccc3c2[nH]1)C(C)=O` [Compound 170, N-[(4-amino-7-propan-2-yl-1H-imidazo[4,5-c]quinolin-2-yl)methyl]-N-ethylacetamide], 20 to 100 µM. As for `CCc1ccc2c(c1)nc(N)c1nc(CN(CC)C(C)=O)[nH]c12` [Compound 171, N-[(4-amino-7-ethyl-1H-imidazo[4,5-c]quinolin-2-yl)methyl]-N-ethylacetamide], the figure is 1 to 20 µM.

Consider `CCCc1ccc2c(c1)nc(N)c1nc(CN(CC)C(C)=O)[nH]c12` [Compound 172, N-[(4-amino-7-propyl-1H-imidazo[4,5-c]quinolin-2-yl)methyl]-N-ethylacetamide], for which the EC50 is 1 to 20 µM. The result for `CCN(Cc1nc2c(N)nc3cc(C4CCCC4)ccc3c2[nH]1)C(C)=O` [Compound 173, N-[(4-amino-7-cyclopentyl-1H-imidazo[4,5-c]quinolin-2-yl)methyl]-N-ethylacetamide] reads more than 100 µM; that for `CCN(Cc1nc2c(N)nc3cc(-c4cccnc4F)ccc3c2[nH]1)C(C)=O` [Compound 175, N-[[4-amino-7-(2-fluoropyridin-3-yl)-1H-imidazo[4,5-c]quinolin-2-yl]methyl]-N-ethylacetamide], more than 100 µM; that for `CCN(Cc1nc2c(N)nc3ccccc3c2[nH]1)C(C)=O` [Compound 176], more than 100 µM. `CCN(Cc1nc2c(N)nc3cc(Br)ccc3c2[nH]1)C(C)=O` [Compound 177] gave an EC50 of more than 100 µM.

For `CCN(Cc1nc2c(N)nc3cc(Cl)ccc3c2[nH]1)C(C)=O` [Compound 179, N-[(4-amino-7-chloro-1H-imidazo[4,5-c]quinolin-2-yl)methyl]-N-ethylacetamide], the EC50 was more than 100 µM.

Consider `CCN(Cc1nc2c(N)nc3cc(-n4cccn4)ccc3c2[nH]1)C(C)=O` [Compound 180, N-[(4-amino-7-pyrazol-1-yl-1H-imidazo[4,5-c]quinolin-2-yl)methyl]-N-ethylacetamide], for which the EC50 is more than 100 µM. For the compound `CCN(Cc1nc2c(N)nc3cc(C4=CCCC4)ccc3c2[nH]1)C(C)=O` [Compound 183], the EC50 was more than 100 µM. As for `CC(=O)N(C)Cc1nc2c(N)nc3ccccc3c2[nH]1` [Compound 187], the figure is 1 to 20 µM; as for `COC(=O)CCCn1c(CN(C)C(C)=O)nc2c(N)nc3ccccc3c21` [Compound 188], more than 100 µM; as for `CCN(Cc1nc2c(N)nc3cc(C4CC4)ccc3c2n1Cc1ccc(OC)cc1)C(C)=O` [Compound 190], more than 100 µM. The result for `CCN(Cc1nc2c(N)nc3ccccc3c2n1CCCNC(=O)OC(C)(C)C)C(C)=O` [Compound 191] reads more than 100 µM.

With `CCN(Cc1nc2c(N)nc3ccc(Br)cc3c2[nH]1)C(C)=O` [Compound 194], the EC50 is more than 100 µM. As for `CCN(Cc1nc2c(N)nc3cc(N4CCNC4=O)ccc3c2n1Cc1ccc(OC)cc1)C(C)=O` [Compound 196], the figure is more than 100 µM; as for `CCN(Cc1nc2c(N)nc3ccc(Cl)cc3c2[nH]1)C(C)=O` [Compound 197], more than 100 µM. The result for `CCOC(=O)c1cc2c(cc1Br)nc(N)c1nc(CN(CC)C(C)=O)[nH]c12` [Compound 198] reads more than 100 µM. The result for `CCN(Cc1nc2c(N)nc3ccc(Br)cc3c2[nH]1)C(=O)OC` [Compound 200] reads more than 100 µM. On to `CCN(Cc1nc2c(N)nc3ccc(Br)cc3c2[nH]1)S(C)(=O)=O` [Compound 201], for which the EC50 was more than 100 µM. As for `CCN(Cc1nc2c(N)nc3ccc(Br)cc3c2[nH]1)S(=O)(=O)c1ccc(C)cc1` [Compound 202], the figure is more than 100 µM; as for `CCN(Cc1nc2c(N)nc3ccc(Br)cc3c2[nH]1)C(=O)C(C)C` [Compound 203], more than 100 µM. As for `CCN(Cc1nc2c(N)nc3ccc(Br)cc3c2[nH]1)C(=O)c1ccccc1` [Compound 204], the figure is more than 100 µM; as for `CCN(Cc1nc2c(N)nc3ccccc3c2n1CCC(=O)N1CCOCC1)C(=O)OC(C)(C)C` [Compound 205], more than 100 µM. The result for `CCN(Cc1nc2c(N)nc3ccc(-n4cccn4)cc3c2[nH]1)C(C)=O` [Compound 207] reads more than 100 µM; that for `CCN(Cc1nc2c(N)nc3cc(Br)ccc3c2n1CCCC(=O)N1CCN(C)CC1)C(C)=O` [Compound 209], more than 100 µM; that for `CCN(Cc1nc2c(N)nc3cc(Br)ccc3c2n1CCCC(=O)NC)C(C)=O` [Compound 210], more than 100 µM. As to `CCN(Cc1nc2c(N)nc3ccccc3c2n1CCC(=O)N1CCN(C(=O)OC(C)(C)C)CC1)C(=O)OC(C)(C)C` [Compound 211], the EC50 was more than 100 µM.

`CCN(Cc1nc2c(N)nc3ccccc3c2n1CCC(=O)N1CCN(C(=O)OC(C)(C)C)CC1)C(C)=O` [Compound 212]: the EC50 was more than 100 µM. The result for `CCN(Cc1nc2c(N)nc3cc(Br)ccc3c2n1CCCC(=O)N(C)C)C(C)=O` [Compound 213] reads more than 100 µM. As for `CCN(Cc1nc2c(N)nc3cc(Br)ccc3c2n1CCCC(=O)N1CCOCC1)C(C)=O` [Compound 214], the figure is more than 100 µM.
